Measurements taken from ChEMBL document CHEMBL4359845, “Synthesis and Evaluation of Carbonic Anhydrase Inhibitors with Carbon Monoxide Releasing Properties for the Management of Rheumatoid Arthritis” (J Med Chem, 2019).
Activity calls are given as the source filed them.

Tests used:
Carbonic anhydrase 1 [1] = target: T1, Carbonic anhydrase 1 (Homo sapiens, UniProt P00915); assay: Inhibition of recombinant human carbonic anhydrase 1 incubated for 15 mins prior to testing measured for 10 to 100 secs by phenol red-based stopped-flow CO2 hydration assay
Carbonic anhydrase 2 [2] = target: T2, Carbonic anhydrase 2 (Homo sapiens, UniProt P00918); assay: Inhibition of recombinant human carbonic anhydrase 2 incubated for 15 mins prior to testing measured for 10 to 100 secs by phenol red-based stopped-flow CO2 hydration assay
Carbonic anhydrase 9 [3] = target: T3, Carbonic anhydrase 9 (Homo sapiens, UniProt Q16790); assay: Inhibition of recombinant human carbonic anhydrase 9 incubated for 15 mins prior to testing measured for 10 to 100 secs by phenol red-based stopped-flow CO2 hydration assay
Carbonic anhydrase 1 [4] = target: T1, Carbonic anhydrase 1; assay: Inhibition of recombinant human carbonic anhydrase 1 incubated for 6 hrs prior to testing measured for 10 to 100 secs by phenol red-based stopped-flow CO2 hydration assay
Carbonic anhydrase 2 [5] = target: T2, Carbonic anhydrase 2; assay: Inhibition of recombinant human carbonic anhydrase 2 incubated for 6 hrs prior to testing measured for 10 to 100 secs by phenol red-based stopped-flow CO2 hydration assay
Rattus norvegicus [6] = assay: (§1) Antihyperalgesic activity in complete freund's adjuvant-induced Sprague-Dawley rat arthritis model assessed as increase in hind paw withdrawal reflex thresholds at 100 mg/kg, po administered 14 days post complete freund's adjuvant challenge and measured up to 15 mins by analgesiometry-based paw pressure test; format: functional, organism-based
Rattus norvegicus [7] = assay: as §1, with “after 15” for “up”, “60” for “15”; format: functional, organism-based
Rattus norvegicus [8] = assay: Effect on contralateral paw withdrawal reflex threshold in complete freund's adjuvant-induced Sprague-Dawley rat arthritis model at 100 mg/kg, po administered 14 days post complete freund's adjuvant challenge by analgesiometry-based paw pressure test; format: ADME, organism-based; conditions: in vivo, 336 h
Rattus norvegicus [9] = assay: (§2) Antihyperalgesic activity in complete freund's adjuvant-induced Sprague-Dawley rat arthritis model assessed as decrease in weight burden on contralateral to ipsilateral paw at 100 mg/kg, po administered 14 days post complete freund's adjuvant challenge and measured up to 15 mins by incapacitance test; format: functional, organism-based
Carbonic anhydrase 4 = Carbonic anhydrase 4 (Homo sapiens, UniProt P22748); assay: Inhibition of recombinant human carbonic anhydrase 4 incubated for 15 mins prior to testing measured for 10 to 100 secs by phenol red-based stopped-flow CO2 hydration assay
Rattus norvegicus [10] = assay: as §1, with “42.4” for “100”, “45” for “15”; format: functional, organism-based
Rattus norvegicus [11] = assay: as §1, with “42.4” for “100”, “after 45” for “up”, “60” for “15”; format: functional, organism-based
Rattus norvegicus [12] = assay: Effect on contralateral paw withdrawal reflex threshold in complete freund's adjuvant-induced Sprague-Dawley rat arthritis model at 42.4 mg/kg, po administered 14 days post complete freund's adjuvant challenge by analgesiometry-based paw pressure test; format: ADME, organism-based; conditions: in vivo, 336 h
Rattus norvegicus [13] = assay: as §2, with “42.4” for “100”, “45” for “15”; format: functional, organism-based
Carbonic anhydrase 9 [14] = target: T3, Carbonic anhydrase 9; assay: Inhibition of recombinant human carbonic anhydrase 9 incubated for 6 hrs prior to testing measured for 10 to 100 secs by phenol red-based stopped-flow CO2 hydration assay
Carbonic anhydrase 12 = Carbonic anhydrase 12 (Homo sapiens, UniProt O43570); assay: Inhibition of recombinant human carbonic anhydrase 12 incubated for 6 hrs prior to testing measured for 10 to 100 secs by phenol red-based stopped-flow CO2 hydration assay
Chain of Carbonic anhydrase 12 (O43570 whole entry): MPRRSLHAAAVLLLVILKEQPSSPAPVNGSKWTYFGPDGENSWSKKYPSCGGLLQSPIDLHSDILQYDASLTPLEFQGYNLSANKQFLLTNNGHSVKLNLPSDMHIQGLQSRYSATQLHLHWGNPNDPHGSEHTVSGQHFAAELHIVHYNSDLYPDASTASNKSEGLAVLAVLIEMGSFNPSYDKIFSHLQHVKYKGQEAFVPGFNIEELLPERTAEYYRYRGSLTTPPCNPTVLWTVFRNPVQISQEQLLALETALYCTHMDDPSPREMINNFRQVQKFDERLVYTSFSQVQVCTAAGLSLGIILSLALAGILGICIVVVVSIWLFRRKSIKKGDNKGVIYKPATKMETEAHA

T1 sequence (P00915 whole entry): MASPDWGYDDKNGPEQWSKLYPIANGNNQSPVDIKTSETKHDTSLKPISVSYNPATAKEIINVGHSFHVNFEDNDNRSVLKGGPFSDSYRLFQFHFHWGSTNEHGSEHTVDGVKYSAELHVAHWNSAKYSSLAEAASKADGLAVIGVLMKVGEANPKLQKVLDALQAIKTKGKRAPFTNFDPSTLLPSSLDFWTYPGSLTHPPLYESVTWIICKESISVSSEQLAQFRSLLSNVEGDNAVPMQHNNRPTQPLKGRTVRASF
Chain of Carbonic anhydrase 4 (P22748 whole entry): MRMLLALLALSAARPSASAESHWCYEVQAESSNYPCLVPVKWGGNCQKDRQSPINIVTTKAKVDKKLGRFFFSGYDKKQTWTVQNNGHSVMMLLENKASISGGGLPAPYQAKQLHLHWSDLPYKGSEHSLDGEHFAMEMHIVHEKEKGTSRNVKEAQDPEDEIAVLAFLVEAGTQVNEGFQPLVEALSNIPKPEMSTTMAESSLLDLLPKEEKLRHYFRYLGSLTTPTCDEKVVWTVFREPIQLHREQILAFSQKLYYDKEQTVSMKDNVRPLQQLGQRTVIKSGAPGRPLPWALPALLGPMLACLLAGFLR

Ki (Carbonic anhydrase 1 [1]) [nM] | Ki (Carbonic anhydrase 2 [2]) [nM] | Ki (Carbonic anhydrase 9 [3]) [nM] | Ki (Carbonic anhydrase 1 [4]) [nM] | Ki (Carbonic anhydrase 2 [5]) [nM] | Ki (Carbonic anhydrase 9 [14]) [nM] | Ki (Carbonic anhydrase 12) [nM] | Structure (SMILES) | other results
30.2 | 29.5 | 7.6 |  |  |  |  | C#CCSc1ccc(S(N)(=O)=O)cc1 | 
 |  |  |  |  |  |  | CC(C)Cc1ccc(C(C)C(=O)O)cc1 (stereo not given) [IBUPROFEN] | Activity (Rattus norvegicus [6]): Active; Activity (Rattus norvegicus [7]): inactive; Activity (Rattus norvegicus [8]): Non-Toxic; Activity (Rattus norvegicus [9]): Active
852 | 96.5 | 416 |  |  |  |  | C#CCNc1ccc(S(N)(=O)=O)cc1 | Ki (Carbonic anhydrase 4): > 10000 nM; Activity (Rattus norvegicus [10]): Active; Activity (Rattus norvegicus [11]): inactive; Activity (Rattus norvegicus [12]): Non-Toxic; Activity (Rattus norvegicus [13]): Active
 |  |  | > 10000 | > 10000 | 474 | 44.5 | C#CCOc1ccc2c(c1)C=CS(=O)(=O)O2 | 
 |  |  |  |  | 171 | 34.7 | C#CCNc1ccc2c(C)cc(=O)oc2c1 | 
 |  |  | > 10000 | > 10000 | 6190 | 30.3 | C#CCOc1ccc2c(c1)OS(=O)(=O)C=C2 | 
817 | 0.44 | 3.8 |  |  |  |  | C#CCN(CC#C)CCCCOc1ccc(S(N)(=O)=O)cc1 | 

Structure (SMILES) | Ki (Carbonic anhydrase 1 [1]) [nM] | Ki (Carbonic anhydrase 2 [2]) [nM] | Ki (Carbonic anhydrase 9 [3]) [nM] | Ki (Carbonic anhydrase 1 [4]) [nM] | Ki (Carbonic anhydrase 2 [5]) [nM] | Ki (Carbonic anhydrase 9 [14]) [nM] | Ki (Carbonic anhydrase 12) [nM] | other results
C#CCOc1ccc2oc(=O)ccc2c1 |  |  |  | > 10000 | > 10000 |  |  | 
